Measurements published in US20140099354A1, “BIOPASSIVATING MEMBRANE STABILIZATION BY MEANS OF NITROCARBOXYLIC ACID-CONTAINING PHOSPHOLIPIDS IN PREPARATIONS AND COATINGS” (priority 2011, published 2014).
Where two headings read alike, the source gives them in different places.

Experiments:
[1] = system: HeLa, HUVEC and L929 fibroblast; test: Volumetric measurement of cells (Coulter counter); type: cell-based; details: time-dependent increase after incubation
Experimental: (§1) Physiologically occurring phospholipids can be taken up by virtually all cell lines in large quantities. It is known that phospholipids that contain non-physiologically occurring fatty acid residues can cause cell lyses or death. Three cell lines (HeLa, HUVEC and L929 fibroblast) were cultured in a suitable culture medium of 5% FCS at 37° C. and 5% CO2 concentrations to a subconfluent concentration of 1.5×10^5 cells.
(§2) SOPC, DOPC, POPC, ONOPC, PNLPC, and the free fatty acids of OA, LA, NOOA, and NOLA were dissolved in 0.5% DMSO. Experiments were performed also with nitro-carboxylic acid-containing phospholipids according to examples N15-N20, G, O3, O5, P2, P5, P8, P9, P11 and Q. PL prepared as aqueous suspensions were added the culture flasks in order to achieve PL concentrations in the culture medium from 10 μmol to 1 mmol. Cell cultures were incubated for 24 h and 48 h. Thereafter, the culture medium was removed and the cells washed twice. Following this, cells suspensions were given in four vials to perform the following analysis:
Volumetric measurement of cells was done in a Histopenz (Sigma) solution with an effective NaCl concentration of 0.9% (approximately 290 mOsm) heated to 37° C. in which the cells were suspended; thereafter the solution was sonified for 2 minutes. Measurements were done using a Coulter counter Z2.

[2] = system: HeLa, HUVEC and L929 fibroblast; test: cells; type: cell-based; details: for EC50: after 48 hours; for viability as quantified by the MTT assay: tested concentrations 10 μmol to 1 mmol, EC50 could not be calculated
Experimental: as §1
SOPC, DOPC, POPC, ONOPC, PNLPC, and the free fatty acids of OA, LA, NOOA, and NOLA were dissolved in 0.5% DMSO. […] Cell cultures were incubated for 24 h and 48 h. Thereafter, the culture medium was removed and the cells washed twice. Following this, cells suspensions were given in four vials to perform the following analysis:
For the determination of viability, phenol red was added to the suspended cells. After 4 h, the medium was renewed and 10 μl of the MTT solution was added. The cells were cultured for 4 hours, and then a 10% SDS solution was pipetted. After 24 h, absorption of formazan crystals was measured at 500 nm using a power wave X (bio-tek instruments, Inc., USA). For the quantitative comparison of toxicity, the EC50 was determined.

[3] = system: Heart muscle cells from rabbit hearts; test: Cytosolic Ca2+ concentration in heart muscle cells (fluo-4 fluorescence); type: cell-based
Experimental: Heart muscle cells were taken from rabbit hearts according to a method described elsewhere (Shannon T R, Ginsburg K S, Bers D M. Quantitative assessment of the SRCa^2+ leak-load relationship. Circ Res. 2002; 91:594-600). The prepared cells were cultured for 72 hours.
The cytosolic Ca^2+ concentrations were determined with fluo-4 fluorescence. Therefore the cells were incubated with 10 μmol fluo-4 AM (1%) for 30 minutes and washed thereafter three times with PBS. The cells were stimulated in a Tryode solution on a platinum electrode with a frequency of 0.5 Hz over 20 cycles. Then the ambient medium was changed and an electrolyte-free colloidal solution was added. Determination of the Ca concentration was performed after each series of stimulation over 20 cycles. Calcium content was estimated by the use of confocal laser scanning microscopy (Olympus). At least 10 cells per experiment were evaluated in a post-systolic interval of 1000 ms. The measurements were repeated at least three times. β-adrenergic stimulation was performed with 250 nmol/L isoproterenol, which was given to the medium.

[4] = Tissue response to coated silicone implants in vivo after bleomycin; set-up: species or system Wistar rats; details: silicone cushions, subcutaneous, 7 to 90 days
Experimental: Induction of fibrotic tissue production by connective tissue activation as a consequence of implantation of foreign material was examined in an in-vivo animal model. As implant materials, sterile silicone cushions having a diameter of 1 cm were used.
In male Wistar rats (190-240 g) that were fed and housed under identical conditions for one week, general anaesthesia was performed by intramuscular injection of 0.008 mL/100 g ketamine and 0.004 mL/100 g xylocaln chloride 2%. Then the back of the animals was shaved, sterilized and infiltrated with xylocalne chloride. A paravertebral incision was made on both sides with a length of 1.5 cm followed by preparation of the subcutaneous tissue, so that on both sides approx. 2×2 cm cavities were preformed. Hemostasis was achieved by cauterization, if necessary. Then balls of cotton saturated with Bleomycin (cell-pharm GmbH, Hannover, Germany: 1% in 0.9% NaCl solution) were inserted into the cavities for 3 minutes and then removed. Without rinsing the cavities, the implants coated with a nitrated phospholipid were inserted into the cavity on the left side and the implants coated with natural phospholipid into the cavity on the right side. Thereafter, a layer by layer wound closure was performed and a sterile adhesive bandage was applied.
The animals were kept according to standard conditions for 7, 14, 30, 60 and 90 days. At any study time endpoint, two animals were euthanized. After death the well visible and palpable implants were removed using en-block resection technique. The resected specimens were fixed and embedded in paraffin. Then they were cut in half and the liquid silicone was removed. The specimens were embedded again and cut into thin slices which were stained with H & E and Sirius red, and evaluated by light microscopy. Evaluation was done according to the following criteria:
A1: none; A2: occasional monocytic cells or lymphocytes; A3: moderate numbers or groups of monocytic cells or lymphocytes; A4: dense infiltration of monocytes, eosinophils, or giant cells.
B1: none; B2: collagen-rich layer around the implant; B3: thick (>1 mm) and dense collagen-rich tissue formation around the implant.
In every 10th serial section 10 fields of view uniformly distributed over the circumference of the implant were evaluated and the herein predominant expression was assigned to an event table. In total, 200 fields of view were analyzed per implant

ovarian tissue strips [5] = test: Cryopreservation of ovarian tissue strips: intact follicles; details: liquid nitrogen 14 days, cultured 14 days
TRPV1, 2 and 4, TRPA1 = test: Inducible ion current of TRP receptors in Xenopus oocytes (voltage clamp); type: cell-based, rat; details: 50 mmol/l, 10 and 60 minutes
Experimental: An established in-vitro model of Xenopus oocytes (Dascal N, 1987 The use of Xenopus oocytes. CRC critical reviews in biochemistry 22, 317-387) was used to study the influence of incubation with PL on ion channels regulated by membrane receptors. Defolliculized oocytes were transfected with cRNA (rat) of TRPV1, 2 and 4, as well as of TRPA1, stored in tissue culture plates and incubated in culture medium (ND 96) at 15° C. under constant motion in the incubator for 7 to 10 days.
Induced leakage currents through activation of the TRP receptors was determined by means of double electrode voltage-clamp technique (Ahern G P, Brooks I M, Miyares R L &Wang X B, 2005, Extracellular cations sensitize and gate capsaicin receptor TRPV1 modulating pain signalling. J Neurosci 25, 5109-5116). Ooocytes were probed with borosilicate glass capillaries (Clark) and connected to a feedback amplifier (Gene clamp Amplifier, Axon instruments). The membrane potential of oocytes was clamped to −60 or −90 mV. The presence of a directive […] current was compared to non-transfected controls. The investigations were performed in a miniature organ bath in calcium-free buffered (Hepes, pH 7.3) NaCl solution. The TRPV1 receptor excitation was initiated by rapidly changing of the bath solution against a capsaicin solution (10 μmol). Results of non-pretreated oocytes were used for normative comparison of subsequent measurements of incubatesd cells. Investigations with incubated cells were carried out in the same way for oocytes transfected with the TRPV2, and TRPV4 and TRPA1 receptors, wherein the receptor agonists cannabidiol (10 μmol) and 4α-PDD (4α-phorbol 12,13-didecanoate, 50 μmol) and innamaldehyde (50 μmol) were used instead of capsaicin.

[6] = system: Cardiac muscle cells derived from neonatal rat heart; test: Hypoxia of cardiac muscle cells (viability, mitochondrial NAD+); type: cell-based; set-up: loss of viability of heart muscle cells after hypoxia: concentration or dose not given beside the values; details: for mitochondrial NAD+ content: hypoxia, baseline 5
Experimental: Cardiac muscle cells derived from neonatal rat heart (Nitobe J, et al, Reactive oxygene species regulate FLICE inhibitory protein and susceptibility to FAS-mediated apoptosis in cardiac myocytes. Cardiovasc RES 2003, 119-28). The heart muscle cells were cultured in Dulbecco/Eagle medium (DMEM) with 10% FCS added under standard conditions for two days. Incubation with the natural and nitrated phospholipids, as well as the hypoxia experiments were carried out as described above. Incubated cells were grown in culture medium under standard conditions for 24 hours. This is followed by a vitality staining as described above. […] The frozen cells were thawed up to -4° C. and homogenized for subsequent NAD^+ analyses. By means of differential centrifuge, pellets containing mitochondria were separated (Di Lisa, et al, 1993; Am. J. Physiol. 264, […]-[…]). The NAD^+ content was determined by fluoroscopy, and normalized to the protein content (Veloso, D., and […]., 1974;) Anal. Biochem., 449-450).

ovarian tissue strips [7] = test: Cryopreservation of ovarian tissue strips: 17 β-estradiol and progesterone (radio-immuno assay); type: cell-based, sheep; details: after cryopreservation and culture
Experimental: Ovar ectomy was performed in female sheep; resected tissues were cut into 60 ovarian tissue strips. The ovarian strips were either cultured directly (n=4) or prepared with a usual solution for vitrification (VS group; Vitrification Kit, Sage, USA) or incubated with nitrated PLs (NPL group). For this purpose, the tissue strips were bathed in an equibrilation solution (ART-8025-A) which consisted of MOPS-buffered amino acids and gentamicin sulfate (10 mg/l), and 7.5% (v/v) of each DMSO and ethylene glycol and 12 mg/ml human serum albumin for 30 minutes. Thereafter the strips of the VS group were placed in the vitrification solution (ART-8025-B), which is a MOPS-buffered solution containing amino acids and gentamicin sulfate, that contain 15% (v/v) each DMSO and ethylenglycol, 12 mg/ml human albumin and 0.6 M sucrose. The strips of the NPL group were placed in a solution containing 25% (v/v) nitrated PL SNOPC or PNLPC in a PBS-buffered 1% DMSO solution containing 5% human albumin for 60 minutes. The treated tissue strips were then immersed into liquid nitrogen and kept here for 14 days. Then removal and warming of the tissue pieces was performed in AIM-V medium (Gibco, Invitrogen) in a sterile culture dish, first up to 5° C. within 20 minutes, then heated further in a water bath up to 37° C., within the following 60 minutes. The culture medium was replaced and specimens cultured for 14 days. After this, the tissue pieces were fixed, embedded in paraffin and cut, followed by histological examination. […] The total number of intact follicles in the control group was taken as a reference to the number of follicles in the cryopreserved groups.
The culture medium has been exchanged by every 2nd day; samples for hormone analysis were taken and frozen at that time. Determination of 17 β-estradiol and progesterone were performed with a radio-immuno assay (diagnostic systems laboratories, USA).

cortical neurons = test: Hypoxia and reperfusion of cortical neurons (viability, LDH)
Experimental: To determine whether the membrane-stabilizing properties of nitrated phospholipids can lead to attenuation of effects due to an ischemic event or the re-perfusion damage, cortical neurons and cardiac myocytes were investigated.
Freshly prepared cortex tissue was separated with Papain and tissue suspensions were cultured in culture vessels (Prim ARA; BD Biosciences, USA) with Neurobasal A/B27 medium (Invitrogen) for 10-12 days. Cell suspensions were divided, and replenished with suspensions of the natural phospholipids SOPC and PLPC, as well as the analogue phospholipids with nitration of unsaturated fatty acids (1-stearoyl-2-(9-nitrooleoyl)-sn-PC and 1-palmitoyl-2-(9-nitrolinoleoyl)-sn-PC) at concentrations of 10 to 50 μmol/l in NaCl (0.9%) were added. […] After 4 hours, the cells were washed three times with buffered saline and buffered NaCl solution with the addition of MgCl2 and CaCl2 in an anaerobic atmosphere (85% N2, 5% O2, 10% CO2; at 35° C.) for 10 and 30 minutes. Then, the cells were washed once and grown in culture medium under aerobic conditions for 24 hours. […] Cells were stained with annexin V-FITC and propidium iodide (Molecular probes, USA). The vital and necrotic cells were measured by flow cytometry (FACSCalibur, Becton & Dickinson). The volume of culture medium was determined and an aliquot was taken for determination of the LDH (lactate dehydrogenase) concentration.

[8] = system: HeLa, HUVEC and L929 fibroblast; test: Cell viability with the live/dead assay; type: cell-based
Experimental: as §1, §2
Studies of cell viability were carried out with the live/dead assay (Molecular Probes). For this purpose, the cells were washed twice with PBS solution and then seeded into a culture medium. Incubation with the staining solution (in 0.1% DMSO) was carried out over 30 minutes in the dark. The viability analyses were performed using fluorescence microscopy.

[9] = Abrasion stability and traction work load of coated balloon catheters; type: physicochemical
Experimental: Balloon catheters were coated by means of the Langmuir-Schaefer procedure where the balloon segment was aligned longitudinally and coaxial to the solution surface, dipping into the liquid for approx. 1 mm over the entire length. Then the catheter was slowly rotated around its axis 5 times. Phospholipids were dissolved at a concentration of 3 mmol in an ion-free aqueous solution at 50° C. The solution was cooled and given to the coating solution then. In case of incomplete dissolution of the phospholipids or if they separated when cooled, DMSO was added at a concentration of up to 20 vol.-%, preferably up to 10 vol.-%. After coating, the catheters were vacuum dried for 8 hours in order to remove residual solvent.
The tubing was filled with a 10% human albumin solution at a temperature of 35° C. The cable system, which had previously been brought through the tubing was connected to the catheter tip and tracked outside the tubing by reversing pulleys, which allowed exactly vertically traction of the cable that was connected to a motorized winch. The winch was mounted on a digital precision balance. The catheters mounted in this manner were pulled through the tubing system and the weight changes measured by the balance, which represented the traction work load achieved for the passage of the catheter, was recorded continuously. These readings were integrated over time. The resultant values allow estimation of the total shear force that occurred during the passage of the catheter through the tubing system.
The abrasion or loss of coating layers was determined by weighing the catheter before and after coating as well as after the mechanical stability test in the tubing system as described above using a high precision balance.

sciatic nerve = test: Viability of cryopreserved nerve grafts (Annexin-V staining, FACS); type: cell-based, rats; details: 100 mmolar solution 1 hour; −30° C. 72 hours
[10] = for the different cell lines, read-out: EC50 concentration (MTT assay)

SMILES: CCCCC/C=C\C/C=C(\CCCCCCCC(=O)O)[N+](=O)[O-] [nitro-linoleic acid, E-9-nitrolinoleic acid]
- cell volume (increase in size to) [1]: 120%
- EC50 [2, 10]: 50 to 100 µM

SMILES: CCCCCCCC/C=C(\CCCCCCCC(=O)O)[N+](=O)[O-] [nitro oleic acid, E-9-nitrooleic acid]
- cell volume (increase in size to) [1]: 140%
- EC50 [2, 10]: 10 to 50 µM

SMILES: CCCCC/C=C\C/C=C\CCCCCCCC(=O)O [linoleic acid, Linoleic acid]
- cell volume (increase in size to) [1]: 170%
- EC50 [2, 10]: 240 to 260 µM

SMILES: CCCCCCCC/C=C\CCCCCCCC(=O)O [oleic acid, Oleic acid]
- cell volume (increase in size to) [1]: 200%
- EC50 [2, 10]: 180 to 260 µM

SMILES: CCCCC/C=C\CC=C(CCCCCCCC(=O)O[C@H](COC(=O)CCCCCCCCCCCCCCC)COP(=O)([O-])OCC[N+](C)(C)C)[N+](=O)[O-] [Example P7, 1-palmitoyl-2-(9-nitrolinoleoyl)-sn-3-glycerophosphocholine]
- end of diastole (ED) cytosolic calcium ([3]; after hypoxia): 70 nmol/L
- post systolic (PS) cytosolic calcium ([3]; after hypoxia): 30 nmol
- end of diastole (ED) cytosolic calcium ([3]; after hypoxia and stimulation with isoproterenol): 100 nmol/L
- end of diastole (ED) cytosolic calcium ([3]; normoxic conditions): 30 nmol/L
- post systolic (PS) cytosolic calcium ([3]; normoxic conditions): 10 nmol
- biocompatibility of coated implants compared to natural PLs [4]: improved biocompatibility of implants several-fold
- rate of intact follicles relative to the control group (ovarian tissue strips [5]): 98%
- inducible membrane channel activity of TRP channels (TRPV1, 2 and 4, TRPA1): significant decrease of inducible membrane channel activity
- loss of viability of heart muscle cells after hypoxia ([6]; (10 minutes)): 5%
- loss of viability of heart muscle cells after hypoxia ([6]; (30 minutes)): 18%
- mitochondrial NAD+ content ([6]; first printed value): 3.6 nmol/mg protein
- mitochondrial NAD+ content ([6]; second printed value): 3.1 nmol/mg protein
- estradiol (ovarian tissue strips [7]): 8.3 ng/mL
- progesterone (ovarian tissue strips [7]): 0.4 ng/mL
- total viability (MTT assay) [2]: 75%
- EC50 ([2]; range over cell lines, read-out: EC50 (MTT assay)): 400 to 3900 µM
- increase in LDH versus normoxemia culture (cortical neurons; 10-minutes ischemia): 130 fold
- viability of cortical cells measured after 24 hours (cortical neurons; 10-minutes ischemia): 70%
- increase in LDH versus normoxemia culture (cortical neurons; 30-minutes ischemia): 290 fold
- viability of cortical cells measured after 24 hours (cortical neurons; 30-minutes ischemia): 52%

SMILES: CCCCCCCC/C=C\CCCCCCCC(=O)OC[C@H](COP(=O)([O-])OCC[N+](C)(C)C)OC(=O)CCCCCCC/C=C\CCCCCCCC [DOPC, 1,2-dioleoyl-sn-glycero-3-PC]
- viability according to the live/dead staining [8]: high rate of viability
- cell volume (increase in size to) [1]: 180%
- viability as quantified by the MTT assay [2]: only slightly decreased

SMILES: CCCCCCCC/C=C(\CCCCCCCC(=O)OC[C@H](COP(=O)([O-])OCC[N+](C)(C)C)OC(=O)CCCCCCC/C(=C\CCCCCCCC)[N+](=O)[O-])[N+](=O)[O-] [Example B, 1,2-di-(9-nitrooleoyl)-sn-3-glycerophosphocholine]
- mechanical removal of coating substance and workload to pull the catheter through PTFE tubing [9]: Very similar results
- proportion of living cells relative to non-frozen control (sciatic nerve): 83%
- biocompatibility of coated implants compared to natural PLs [4]: improved biocompatibility of implants several-fold
- inducible membrane channel activity of TRP channels (TRPV1, 2 and 4, TRPA1): significant decrease of inducible membrane channel activity

SMILES: CCCCCCCC/C=C\CCCCCCCC(=O)O[C@H](COC(=O)CCCCCCCCCCCCCCCCC)COP(=O)([O-])OCC[N+](C)(C)C [SOPC, 1-Stearoyl-2-oleoyl-sn-glycero-3-PC, reference compound]
- viability according to the live/dead staining [8]: high rate of viability
- proportion of living cells relative to non-frozen control (sciatic nerve): 26%
- cell volume (increase in size to) [1]: 150%
- loss of viability of heart muscle cells after hypoxia ([6]; (10 minutes)): 14%
- loss of viability of heart muscle cells after hypoxia ([6]; (30 minutes)): 40%
- mitochondrial NAD+ content ([6]; first printed value): 3.0 nmol/mg protein
- mitochondrial NAD+ content ([6]; second printed value): 1.1 nmol/mg protein
- viability as quantified by the MTT assay [2]: only slightly decreased
- increase in LDH versus normoxemia culture (cortical neurons; 10-minutes ischemia): 280 fold
- viability of cortical cells measured after 24 hours (cortical neurons; 10-minutes ischemia): 33%
- increase in LDH versus normoxemia culture (cortical neurons; 30-minutes ischemia): 640 fold
- viability of cortical cells measured after 24 hours (cortical neurons; 30-minutes ischemia): 0%
